Data from PMC7402526, “An in vitro quantitative systems pharmacology approach for deconvolving mechanisms of drug-induced, multilineage cytopenias” (PLoS Computational Biology, 2020).
pEC50: −log10 of the molar value.

Assays:
[1] = system: hematopoietic stem cells (HSCs); test: Multi-lineage toxicity assay (MLTA), HSCs: concentration-response and QSP model fit; format: cell-based, human; set-up: EmaxAP,HSC / EmaxT,HSC / Emax_drug_HSC: unitless, 0–2; ≤1 anti-proliferative, >1 adds cell killing
Protocol: (§1) A custom optimized cytokine cocktail was developed using commercially available cytokines (Peprotech, New Jersey) to facilitate simultaneous multi-lineage differentiation and self-renewal of freeze-thawed primary human bone marrow-derived CD34+ cells in SFEM II media (cells and media from StemCell Technologies, Vancouver). Cultures were carried out in ultra-low attachment 96-well plates (Corning, New York) with test article added on day 0 and cultured at 37°C, 85% relative humidity, and 5% CO2 for six days before interrogating drug impact via 17-parameter flow cytometry.
(§2) The flow cytometry panel used to define hematopoietic subsets was composed of CD34-PECy7, CD90-PECY5, CD38-AF488, CD371-PE, CD45Ra-BV421, CD14-BV605, CD42b-AF647, CD10-PEDazzle594, CD235a-PerCPCy5.5 (BioLegend, California), CD15-BUV395, CD41a-APCH7, CD71-BV786 (BD Biosciences, California), and DAPI for dead cell exclusion (ThermoFisher, California). In short, Day 6 cells were harvested, FcR-blocked (FcR binding inhibitor, ThermoFisher), surface-stained, then analyzed in a buffer containing TruCount Control Beads using a BD LSR Fortessa SORP fitted with a high-throughput sampler (BD Biosciences, California). Data was analyzed in Diva 6.0.2 and exported to CSV where after all cell data was transformed to cell per mL then normalized on a per-donor basis to untreated control wells to determine drug impact.
(§3) Donor material was collected and cultured as described above. The number of replicate donor samples per drug ranged from 2–7 and varied per drug (S1 Table). Drug treatment was added at time 0 and cells were maintained in culture for 6 days. Concentrations tested for each drug compound are contained in S1 Table. Concentrations were selected to span a range that is clinically useful. Following treatment, cell populations were measured using flow cytometry. We extracted cell counts from flow cytometry data, normalized to bead counts, and corrected for well volume.
(§4) Each well was normalized to the average of six vehicle control wells. For drugs that were tested across multiple runs of the assay, vehicle-normalized donor data were pooled, and we used the average of these pooled data for further modeling. Normalized data used as model inputs are included in S1 Table.
(§5) We implemented drug effects using an Emax model for the drug’s effect on each cell type. The 13 maximum effect parameters (EmaxT,C) are unitless and can vary between 0 and 2 and where a subscript, C, represents one of the previously described 13 cell types. We adapted a traditional Emax model using the equations below. We interpreted EmaxT values less than or equal to one as anti-proliferative, and EmaxT values greater than one as indicating a cell-killing mechanism in addition to anti-proliferation. The relationships for these effects are included in the model using the following equations. Eq 2 describes the drug anti-proliferative effect in the net proliferation rate for a given cell type. Eq 3 describes the cell-killing EmaxCK effect.
(§6) Towards the estimation of mechanistic parameters, we considered different formulations: (a) weighting the objective value to prioritize fitting dead cells and (b) using regularization methodology to encourage a parsimonious solution. We assessed the contributions of these formulations using mean-squared error and goodness of fit plots for drugs with known mechanisms. […] Further, we used L1 regularization to penalize parameters […] to help identify a parsimonious set of parameters to explain drug effects.

[2] = system: granulocyte-macrophage progenitor (GMPs); test: MLTA, GMPs: concentration-response and QSP model fit; format: cell-based, human; settings: Homo sapiens, 144 h
Protocol: as §1, §2, §3, §4, §5, §6

[3] = system: multi-potent progenitors (MPPs); test: MLTA, MPPs: concentration-response and QSP model fit; format: cell-based, human; settings: Homo sapiens, 144 h
Protocol: as §1, §2, §3, §4, §5, §6

monocytes (monocyte-lin) = test: MLTA, Mono: concentration-response and QSP model fit; format: cell-based, human; settings: Homo sapiens, Monocyte, 144 h
Protocol: as §1, §2, §3, §4, §5, §6

[4] = system: lymphocyte progenitors (LymP); test: MLTA, LymP: concentration-response and QSP model fit; format: cell-based, human; settings: Homo sapiens, Lymphocyte, 144 h
Protocol: as §1, §2, §3, §4, §5, §6

B cells (B-lin) = test: MLTA, B-lin: concentration-response and QSP model fit; format: cell-based, human; settings: Homo sapiens, B-cell, 144 h
Protocol: as §1, §2, §3, §4, §5, §6

[5] = system: total dead cells (totalDeadCells); test: MLTA, total dead cells concentration-response; format: cell-based; settings: Homo sapiens, 144 h, 6 days, normalized to vehicle control, read-out: total_dead normalized cell count
Protocol: as §1, §2, §3, §4

granulocytes (Gran-lin) = test: MLTA, Gran: concentration-response and QSP model fit; format: cell-based, human; settings: Homo sapiens, 144 h
Protocol: as §1, §2, §3, §4, §5, §6

[6] = QSP model fit of 6-day MLTA data

pEC50 [2, 6]: 6.85
pEC50 (monocytes (monocyte-lin); [6]): 6.74
pEC50 (B cells (B-lin); [6]): 7.45
SMILES: CN(C)C(=O)c1cc2cnc(Nc3ccc(N4CCNCC4)cn3)nc2n1C1CCCC1 [ribociclib]
pEC50 ([1]; Homo sapiens, Hematopoietic stem cell, 144 h, QSP model fit of 6-day MLTA data): 6.43
activity at 0.0002 µM ([1]; Homo sapiens, Hematopoietic stem cell, 144 h, dose 0.2 nM, 6 days, normalized to vehicle control, read-out: HSCs normalized cell count): 90.3%
activity at 0.001 µM ([1]; Homo sapiens, Hematopoietic stem cell, 144 h, dose 1 nM, 6 days, normalized to vehicle control, read-out: HSCs normalized cell count): 93.9%
activity at 0.005 µM ([1]; Homo sapiens, Hematopoietic stem cell, 144 h, dose 5 nM, 6 days, normalized to vehicle control, read-out: HSCs normalized cell count): 107%
activity at 0.025 µM ([1]; Homo sapiens, Hematopoietic stem cell, 144 h, dose 25 nM, 6 days, normalized to vehicle control, read-out: HSCs normalized cell count): 98.7%
activity at 0.1 µM ([1]; Homo sapiens, Hematopoietic stem cell, 144 h, dose 100 nM, 6 days, normalized to vehicle control, read-out: HSCs normalized cell count): 89.4%
activity at 0.5 µM ([1]; Homo sapiens, Hematopoietic stem cell, 144 h, dose 500 nM, 6 days, normalized to vehicle control, read-out: HSCs normalized cell count): 67.7%
activity at 2.5 µM ([1]; Homo sapiens, Hematopoietic stem cell, 144 h, dose 2500 nM, 6 days, normalized to vehicle control, read-out: HSCs normalized cell count): 35.2%
Emax ([1]; Homo sapiens, Hematopoietic stem cell, 144 h, parameter from QSP model fitting, read-out: Emax_drug_HSC): 48.9%
EmaxAP,HSC ([1]; anti-proliferation component, min(1, EmaxT)): 0.489
activity at 0.0002 µM ([2]; dose 0.2 nM, 6 days, normalized to vehicle control, read-out: GMPs normalized cell count): 91.2%
activity at 0.001 µM ([2]; dose 1 nM, 6 days, normalized to vehicle control, read-out: GMPs normalized cell count): 92.5%
activity at 0.005 µM ([2]; dose 5 nM, 6 days, normalized to vehicle control, read-out: GMPs normalized cell count): 103%
activity at 0.025 µM ([2]; dose 25 nM, 6 days, normalized to vehicle control, read-out: GMPs normalized cell count): 85%
activity at 0.1 µM ([2]; dose 100 nM, 6 days, normalized to vehicle control, read-out: GMPs normalized cell count): 73.4%
activity at 0.5 µM ([2]; dose 500 nM, 6 days, normalized to vehicle control, read-out: GMPs normalized cell count): 54.4%
activity at 2.5 µM ([2]; dose 2500 nM, 6 days, normalized to vehicle control, read-out: GMPs normalized cell count): 29.5%
activity at 0.0002 µM ([3]; dose 0.2 nM, 6 days, normalized to vehicle control, read-out: MPPs normalized cell count): 81.4%
activity at 0.001 µM ([3]; dose 1 nM, 6 days, normalized to vehicle control, read-out: MPPs normalized cell count): 91.9%
activity at 0.005 µM ([3]; dose 5 nM, 6 days, normalized to vehicle control, read-out: MPPs normalized cell count): 83.8%
activity at 0.025 µM ([3]; dose 25 nM, 6 days, normalized to vehicle control, read-out: MPPs normalized cell count): 63.7%
activity at 0.1 µM ([3]; dose 100 nM, 6 days, normalized to vehicle control, read-out: MPPs normalized cell count): 46.9%
activity at 0.5 µM ([3]; dose 500 nM, 6 days, normalized to vehicle control, read-out: MPPs normalized cell count): 28.4%
activity at 2.5 µM ([3]; dose 2500 nM, 6 days, normalized to vehicle control, read-out: MPPs normalized cell count): 16.9%
Emax ([3]; parameter from QSP model fitting, read-out: Emax_drug_MPP): 0.0237%
activity at 0.0002 µM (monocytes (monocyte-lin); dose 0.2 nM, 6 days, normalized to vehicle control, read-out: Mon normalized cell count): 84.3%
activity at 0.001 µM (monocytes (monocyte-lin); dose 1 nM, 6 days, normalized to vehicle control, read-out: Mon normalized cell count): 96.7%
activity at 0.005 µM (monocytes (monocyte-lin); dose 5 nM, 6 days, normalized to vehicle control, read-out: Mon normalized cell count): 92.1%
activity at 0.025 µM (monocytes (monocyte-lin); dose 25 nM, 6 days, normalized to vehicle control, read-out: Mon normalized cell count): 78.1%
activity at 0.1 µM (monocytes (monocyte-lin); dose 100 nM, 6 days, normalized to vehicle control, read-out: Mon normalized cell count): 55.4%
activity at 0.5 µM (monocytes (monocyte-lin); dose 500 nM, 6 days, normalized to vehicle control, read-out: Mon normalized cell count): 31.4%
activity at 2.5 µM (monocytes (monocyte-lin); dose 2500 nM, 6 days, normalized to vehicle control, read-out: Mon normalized cell count): 8.51%
Emax (monocytes (monocyte-lin); parameter from QSP model fitting, read-out: Emax_drug_Mono): 19.5%
activity at 0.0002 µM ([4]; dose 0.2 nM, 6 days, normalized to vehicle control, read-out: LymP normalized cell count): 87.8%
activity at 0.001 µM ([4]; dose 1 nM, 6 days, normalized to vehicle control, read-out: LymP normalized cell count): 95.2%
activity at 0.005 µM ([4]; dose 5 nM, 6 days, normalized to vehicle control, read-out: LymP normalized cell count): 100%
activity at 0.025 µM ([4]; dose 25 nM, 6 days, normalized to vehicle control, read-out: LymP normalized cell count): 61.7%
activity at 0.1 µM ([4]; dose 100 nM, 6 days, normalized to vehicle control, read-out: LymP normalized cell count): 39.1%
activity at 0.5 µM ([4]; dose 500 nM, 6 days, normalized to vehicle control, read-out: LymP normalized cell count): 17.4%
activity at 2.5 µM ([4]; dose 2500 nM, 6 days, normalized to vehicle control, read-out: LymP normalized cell count): 4.31%
Emax ([4]; parameter from QSP model fitting, read-out: Emax_drug_LymP): 0.032%
activity at 0.0002 µM (B cells (B-lin); dose 0.2 nM, 6 days, normalized to vehicle control, read-out: B-lin normalized cell count): 74.3%
activity at 0.001 µM (B cells (B-lin); dose 1 nM, 6 days, normalized to vehicle control, read-out: B-lin normalized cell count): 107%
activity at 0.005 µM (B cells (B-lin); dose 5 nM, 6 days, normalized to vehicle control, read-out: B-lin normalized cell count): 79.4%
activity at 0.025 µM (B cells (B-lin); dose 25 nM, 6 days, normalized to vehicle control, read-out: B-lin normalized cell count): 61.2%
activity at 0.1 µM (B cells (B-lin); dose 100 nM, 6 days, normalized to vehicle control, read-out: B-lin normalized cell count): 46.3%
activity at 0.5 µM (B cells (B-lin); dose 500 nM, 6 days, normalized to vehicle control, read-out: B-lin normalized cell count): 28%
activity at 2.5 µM (B cells (B-lin); dose 2500 nM, 6 days, normalized to vehicle control, read-out: B-lin normalized cell count): 28.3%
Emax (B cells (B-lin); parameter from QSP model fitting, read-out: Emax_drug_B): 30.5%
activity at 0.0002 µM ([5]; dose 0.2 nM): 117%
activity at 0.001 µM ([5]; dose 1 nM): 117%
activity at 0.005 µM ([5]; dose 5 nM): 129%
activity at 0.025 µM ([5]; dose 25 nM): 81.1%
activity at 0.1 µM ([5]; dose 100 nM): 60%
activity at 0.5 µM ([5]; dose 500 nM): 32.1%
activity at 2.5 µM ([5]; dose 2500 nM): 27.8%
activity at 0.0002 µM (granulocytes (Gran-lin); dose 0.2 nM, 6 days, normalized to vehicle control, read-out: Gran normalized cell count): 92.9%
activity at 0.001 µM (granulocytes (Gran-lin); dose 1 nM, 6 days, normalized to vehicle control, read-out: Gran normalized cell count): 98.1%
activity at 0.005 µM (granulocytes (Gran-lin); dose 5 nM, 6 days, normalized to vehicle control, read-out: Gran normalized cell count): 109%
activity at 0.025 µM (granulocytes (Gran-lin); dose 25 nM, 6 days, normalized to vehicle control, read-out: Gran normalized cell count): 74.6%
activity at 0.1 µM (granulocytes (Gran-lin); dose 100 nM, 6 days, normalized to vehicle control, read-out: Gran normalized cell count): 50.7%
activity at 0.5 µM (granulocytes (Gran-lin); dose 500 nM, 6 days, normalized to vehicle control, read-out: Gran normalized cell count): 23.7%
activity at 2.5 µM (granulocytes (Gran-lin); dose 2500 nM, 6 days, normalized to vehicle control, read-out: Gran normalized cell count): 6.7%
Emax (granulocytes (Gran-lin); parameter from QSP model fitting, read-out: Emax_drug_Gran): 0.0359%
